Values after ≈ are worked out from the molar mass of the structure shown.
Legend:
Type in all cases: cell-based
Proteus vulgaris HX 19 = assay: Minimum Inhibitory Concentration, Proteus vulgaris HX 19; settings: HX19; Proteus vulgaris HX 19; read-out: Minimum Inhibitory Concentration
Description: (§1) anti-microbial activity tests were carried out on the compounds obtained in the Examples.

[1] = tested on: Staphylococcus aureus FS 289; assay: Minimum Inhibitory Concentration, Staphylococcus aureus FS 289; settings: FS289; Staphylococcus aureus FS 289, strain resistant to penicillin; read-out: Minimum Inhibitory Concentration
Description: as §1
*Staphylococcus aureus FS 289: strain resistant to penicillin

Escherichia coli NIHJ = assay: Minimum Inhibitory Concentration, Escherichia coli NIHJ; settings: Escherichia coli NIHJ; read-out: Minimum Inhibitory Concentration
Description: as §1

[2] = tested on: Pseudomonas aeruginosa 104; assay: Minimum Inhibitory Concentration, Pseudomonas aeruginosa 104; settings: Pseudomonas aeruginosa 104; read-out: Minimum Inhibitory Concentration
Description: as §1

[3] = tested on: Enterobacter aerogeneus No. 75; assay: Minimum Inhibitory Concentration, Enterobacter aerogeneus No. 75; settings: Enterobacter aerogeneus No. 75; read-out: Minimum Inhibitory Concentration
Description: as §1

[4] = tested on: Klebsiella pneumoniae 602; assay: Minimum Inhibitory Concentration, Klebsiella pneumoniae 602; settings: Klebsiella pneumoniae, 602, Klebsiella pneumoniae 602; read-out: Minimum Inhibitory Concentration
Description: as §1

Serratia No. 72 = assay: Minimum Inhibitory Concentration, Serratia No. 72
Description: as §1

[5] = tested on: Staphylococcus aureus 209 P; assay: Minimum Inhibitory Concentration, Staphylococcus aureus 209 P; settings: Staphylococcus aureus 209 P; read-out: Minimum Inhibitory Concentration
Description: as §1

| SMILES | MIC (Proteus vulgaris HX 19) | MIC [1] | MIC (Escherichia coli NIHJ) | MIC [2] | MIC [3] | MIC [4] | MIC (Serratia No. 72) | MIC [5] |
| --- | --- | --- | --- | --- | --- | --- | --- | --- |
| CC(=O)OCC1=C(C(=O)O)N2C(=O)C(NC(=O)C(NC(=O)c3ccnnc3O)c3ccc(CO)cc3)C2SC1 (stereo not shown) [Example 92] | 0.39 µg/mL (≈ 0.7 µM) | 6.25 µg/mL (≈ 11.2 µM) | 25 µg/mL (≈ 44.8 µM) | 12.5 µg/mL (≈ 22.4 µM) | 25 µg/mL (≈ 44.8 µM) | 12.5 µg/mL (≈ 22.4 µM) | > 200 µg/mL | 0.78 µg/mL (≈ 1.4 µM) |
| Cc1nnc(SCC2=C(C(=O)O)N3C(=O)C(NC(=O)C(NC(=O)c4ccnnc4O)c4ccc(CO)cc4)C3SC2)s1 (stereo not shown) [Example 93] | 0.2 µg/mL (≈ 0.318 µM) | 12.5 µg/mL (≈ 19.9 µM) | 12.5 µg/mL (≈ 19.9 µM) | 12.5 µg/mL (≈ 19.9 µM) | 25 µg/mL (≈ 39.7 µM) | 12.5 µg/mL (≈ 19.9 µM) | 50 µg/mL (≈ 79.4 µM) | 0.78 µg/mL (≈ 1.24 µM) |
| Cn1nnnc1SCC1=C(C(=O)O)N2C(=O)C(NC(=O)C(NC(=O)c3cncnc3O)c3ccc(CO)cc3)C2SC1 (stereo not shown) [Example 94] | 0.78 µg/mL (≈ 1.27 µM) | 12.5 µg/mL (≈ 20.4 µM) | 25 µg/mL (≈ 40.7 µM) | 25 µg/mL (≈ 40.7 µM) | 25 µg/mL (≈ 40.7 µM) | 12.5 µg/mL (≈ 20.4 µM) | 50 µg/mL (≈ 81.5 µM) | 0.78 µg/mL (≈ 1.27 µM) |
| O=C(O)C1=C(CSc2nncs2)CSC2C(NC(=O)C(NC(=O)c3cncnc3O)c3ccc(CO)cc3)C(=O)N12 (stereo not shown) [Example 95] | 0.78 µg/mL (≈ 1.27 µM) | 12.5 µg/mL (≈ 20.3 µM) | 25 µg/mL (≈ 40.6 µM) | 25 µg/mL (≈ 40.6 µM) | 25 µg/mL (≈ 40.6 µM) | 12.5 µg/mL (≈ 20.3 µM) | 50 µg/mL (≈ 81.2 µM) | 0.78 µg/mL (≈ 1.27 µM) |
| Cc1nnc(SCC2=C(C(=O)O)N3C(=O)C(NC(=O)C(NC(=O)c4cnc5cccnc5c4O)c4ccc(CO)cc4)C3SC2)s1 (stereo not shown) [Example 96] | 0.2 µg/mL (≈ 0.294 µM) | 6.25 µg/mL (≈ 9.19 µM) | 3.13 µg/mL (≈ 4.6 µM) | 6.25 µg/mL (≈ 9.19 µM) | 6.25 µg/mL (≈ 9.19 µM) | 1.56 µg/mL (≈ 2.29 µM) | 12.5 µg/mL (≈ 18.4 µM) | 1.56 µg/mL (≈ 2.29 µM) |
| Cn1nnnc1SCC1=C(C(=O)O)N2C(=O)C(NC(=O)C(NC(=O)c3cnc4cccnc4c3O)c3ccc(CO)cc3)C2SC1 (stereo not shown) [Example 97] | 0.2 µg/mL (≈ 0.301 µM) | 6.25 µg/mL (≈ 9.42 µM) | 1.56 µg/mL (≈ 2.35 µM) | 6.25 µg/mL (≈ 9.42 µM) | 6.25 µg/mL (≈ 9.42 µM) | 1.56 µg/mL (≈ 2.35 µM) | 25 µg/mL (≈ 37.7 µM) | 1.56 µg/mL (≈ 2.35 µM) |
| O=C(O)C1=C(CSc2cnn[nH]2)CSC2C(NC(=O)C(NC(=O)c3cnc4cccnc4c3O)c3ccc(CO)cc3)C(=O)N12 (stereo not shown) [Example 98] | 0.2 µg/mL (≈ 0.308 µM) | 6.25 µg/mL (≈ 9.63 µM) | 1.56 µg/mL (≈ 2.4 µM) | 6.25 µg/mL (≈ 9.63 µM) | 6.25 µg/mL (≈ 9.63 µM) | 1.56 µg/mL (≈ 2.4 µM) | 25 µg/mL (≈ 38.5 µM) | 1.56 µg/mL (≈ 2.4 µM) |
| CC(=O)OCC1=C(C(=O)O)N2C(=O)C(NC(=O)C(NC(=O)c3cnc4nc(C)ccc4c3O)c3ccc(CO)cc3)C2SC1 (stereo not shown) [Example 99] | 0.78 µg/mL (≈ 1.25 µM) | 6.25 µg/mL (≈ 10.1 µM) | 6.25 µg/mL (≈ 10.1 µM) | 12.5 µg/mL (≈ 20.1 µM) | 12.5 µg/mL (≈ 20.1 µM) | 6.25 µg/mL (≈ 10.1 µM) | 50 µg/mL (≈ 80.4 µM) | 1.56 µg/mL (≈ 2.51 µM) |
| Cc1ccc2c(O)c(C(=O)NC(C(=O)NC3C(=O)N4C(C(=O)O)=C(CSc5nnc(C)s5)CSC34)c3ccc(CO)cc3)cnc2n1 (stereo not shown) [Example 100] | 0.39 µg/mL (≈ 0.562 µM) | 6.25 µg/mL (≈ 9.01 µM) | 3.13 µg/mL (≈ 4.51 µM) | 6.25 µg/mL (≈ 9.01 µM) | 6.25 µg/mL (≈ 9.01 µM) | 6.25 µg/mL (≈ 9.01 µM) | 50 µg/mL (≈ 72.1 µM) | 1.56 µg/mL (≈ 2.25 µM) |
| O=C(O)C1=C(CSc2ccc(O)nn2)CSC2C(NC(=O)C(NC(=O)c3cnc4cccnc4c3O)c3ccc(CO)cc3)C(=O)N12 (stereo not shown) [Example 102] | 0.39 µg/mL (≈ 0.577 µM) | 6.25 µg/mL (≈ 9.25 µM) | 3.13 µg/mL (≈ 4.63 µM) | 6.25 µg/mL (≈ 9.25 µM) | 12.5 µg/mL (≈ 18.5 µM) | 3.13 µg/mL (≈ 4.63 µM) | 25 µg/mL (≈ 37 µM) | 1.56 µg/mL (≈ 2.31 µM) |
| O=C(O)C1=C(CSc2nnc(CO)s2)CSC2C(NC(=O)C(NC(=O)c3cnc4cccnc4c3O)c3ccc(CO)cc3)C(=O)N12 (stereo not shown) [Example 103] | 0.2 µg/mL (≈ 0.287 µM) | 6.25 µg/mL (≈ 8.98 µM) | 3.13 µg/mL (≈ 4.5 µM) | 6.25 µg/mL (≈ 8.98 µM) | 12.5 µg/mL (≈ 18 µM) | 3.13 µg/mL (≈ 4.5 µM) | 12.5 µg/mL (≈ 18 µM) | 1.56 µg/mL (≈ 2.24 µM) |
| CSc1cnc2c(O)c(C(=O)NC(C(=O)NC3C(=O)N4C(C(=O)O)=C(CSc5nnc(C)s5)CSC34)c3ccc(CO)cc3)cnc2n1 (stereo not shown) [Example 104] | 0.39 µg/mL (≈ 0.537 µM) | 6.25 µg/mL (≈ 8.6 µM) | 6.25 µg/mL (≈ 8.6 µM) | 6.25 µg/mL (≈ 8.6 µM) | 12.5 µg/mL (≈ 17.2 µM) | 3.13 µg/mL (≈ 4.31 µM) | 12.5 µg/mL (≈ 17.2 µM) | 1.56 µg/mL (≈ 2.15 µM) |
| Cc1nc2ncc(C(=O)NC(C(=O)NC3C(=O)N4C(C(=O)O)=C(CSc5nnnn5C)CSC34)c3ccc(CO)cc3)c(O)c2nc1C (stereo not shown) [Example 105] | 0.2 µg/mL (≈ 0.289 µM) | 6.25 µg/mL (≈ 9.02 µM) | 6.25 µg/mL (≈ 9.02 µM) | 6.25 µg/mL (≈ 9.02 µM) | 12.5 µg/mL (≈ 18 µM) | 3.13 µg/mL (≈ 4.52 µM) | 12.5 µg/mL (≈ 18 µM) | 0.78 µg/mL (≈ 1.13 µM) |
| COc1ccc2ncc(C(=O)NC(C(=O)NC3C(=O)N4C(C(=O)O)=C(CSc5cnn[nH]5)CSC34)c3ccc(CO)cc3)c(O)c2n1 (stereo not shown) [Example 106] | 0.2 µg/mL (≈ 0.295 µM) | 6.25 µg/mL (≈ 9.21 µM) | 3.13 µg/mL (≈ 4.61 µM) | 6.25 µg/mL (≈ 9.21 µM) | 6.25 µg/mL (≈ 9.21 µM) | 1.56 µg/mL (≈ 2.3 µM) | 12.5 µg/mL (≈ 18.4 µM) | 1.56 µg/mL (≈ 2.3 µM) |
